Reference: the NIST ThermoML archive (doi:10.1021/je100577v)
± gives the expanded uncertainty stated by the source.

Experiment: xn = mol fraction of the nth substance listed
Details: Liquid, Vibrating tube method

CC12CCC(CC1)C(C)(C)O2 [1,3,3-trimethyl-2-oxabicyclo[2.2.2]octane] + CCCO
mass density [kg/m3]
Details	20000 kPa	25000 kPa	30000 kPa	35000 kPa	40000 kPa
283.15 K, x1 = 0.0499	839.5 ± 1	842.9 ± 1	845.8 ± 1	848.9 ± 1	851.6 ± 1
283.15 K, x1 = 0.1061	853.7 ± 1	856.9 ± 1	859.8 ± 1	862.8 ± 1	865.5 ± 1
283.15 K, x1 = 0.2029	873.3 ± 1	876.4 ± 1	879.3 ± 1	882.3 ± 1	885 ± 1
283.15 K, x1 = 0.3028	889.7 ± 1	892.8 ± 1	895.6 ± 1	898.6 ± 1	901.4 ± 1
283.15 K, x1 = 0.3955	901.8 ± 1	905 ± 1	907.9 ± 1	910.7 ± 1	913.5 ± 1
283.15 K, x1 = 0.4938	912.4 ± 1	915.6 ± 1	918.5 ± 1	921.3 ± 1	924 ± 1
283.15 K, x1 = 0.5904	921.2 ± 1	924.4 ± 1	927.3 ± 1	930.1 ± 1	932.9 ± 1
283.15 K, x1 = 0.7	929.6 ± 1	932.8 ± 1	935.7 ± 1	938.5 ± 1	941.2 ± 1
283.15 K, x1 = 0.7915	935.7 ± 1	938.9 ± 1	941.7 ± 1	944.6 ± 1	947.3 ± 1
283.15 K, x1 = 0.8954	941.2 ± 1	944.3 ± 1	947.2 ± 1	950.1 ± 1	952.8 ± 1
283.15 K, x1 = 0.9332	942.9 ± 1	946.1 ± 1	949 ± 1	951.8 ± 1	954.5 ± 1
283.15 K, x1 = 1	945.9 ± 1	949.1 ± 1	952 ± 1	954.9 ± 1	957.6 ± 1
298.15 K, x1 = 0.0499	828.6 ± 1	831.8 ± 1	835.1 ± 1	838.1 ± 1	841.2 ± 1.1
298.15 K, x1 = 0.1061	842.6 ± 1	845.8 ± 1	849 ± 1	852 ± 1	855 ± 1
298.15 K, x1 = 0.2029	862 ± 1	865.2 ± 1	868.4 ± 1	871.4 ± 1	874.4 ± 1
298.15 K, x1 = 0.3028	878.3 ± 1	881.6 ± 1	884.7 ± 1	887.7 ± 1	890.6 ± 1
298.15 K, x1 = 0.3955	890.5 ± 1	893.7 ± 1	896.7 ± 1	899.8 ± 1	902.7 ± 1
298.15 K, x1 = 0.4938	901 ± 1	904.3 ± 1	907.3 ± 1	910.3 ± 1	913.2 ± 1
298.15 K, x1 = 0.5904	909.7 ± 1	912.9 ± 1	915.9 ± 1	918.9 ± 1	921.9 ± 1
298.15 K, x1 = 0.7	917.9 ± 1	921.1 ± 1	924.2 ± 1	927.1 ± 1	930.1 ± 1
298.15 K, x1 = 0.7915	923.9 ± 1	927.1 ± 1	930.2 ± 1	933.2 ± 1	936.1 ± 1
298.15 K, x1 = 0.8954	929.4 ± 1	932.6 ± 1	935.7 ± 1	938.8 ± 1	941.6 ± 1
298.15 K, x1 = 0.9332	931.1 ± 1	934.3 ± 1	937.3 ± 1	940.3 ± 1	943.3 ± 1
298.15 K, x1 = 1	934.1 ± 1	937.4 ± 1	940.5 ± 1	943.4 ± 1	946.4 ± 1
313.15 K, x1 = 0.0499	817.1 ± 1	820.8 ± 1	824.3 ± 1	827.5 ± 1.1	830.7 ± 1.1
313.15 K, x1 = 0.1061	831 ± 1	834.7 ± 1	838.1 ± 1	841.3 ± 1	844.5 ± 1.1
313.15 K, x1 = 0.2029	850.4 ± 1	854 ± 1	857.4 ± 1	860.7 ± 1	863.9 ± 1
313.15 K, x1 = 0.3028	866.6 ± 1	870.2 ± 1	873.5 ± 1	876.7 ± 1	879.8 ± 1
313.15 K, x1 = 0.3955	878.6 ± 1	882.2 ± 1	885.5 ± 1	888.7 ± 1	891.7 ± 1
313.15 K, x1 = 0.4938	889.1 ± 1	892.6 ± 1	895.9 ± 1	899 ± 1	902.1 ± 1
313.15 K, x1 = 0.5904	897.7 ± 1	901.2 ± 1	904.5 ± 1	907.6 ± 1	910.8 ± 1
313.15 K, x1 = 0.7	905.8 ± 1	909.3 ± 1	912.6 ± 1	915.8 ± 1	918.9 ± 1
313.15 K, x1 = 0.7915	911.8 ± 1	915.3 ± 1	918.6 ± 1	921.8 ± 1	924.9 ± 1
313.15 K, x1 = 0.8954	917.3 ± 1	920.8 ± 1	924 ± 1	927.3 ± 1	930.5 ± 1
313.15 K, x1 = 0.9332	919.1 ± 1	922.5 ± 1	925.9 ± 1	929.1 ± 1	932.2 ± 1
313.15 K, x1 = 1	922.3 ± 1	925.8 ± 1	929.1 ± 1	932.4 ± 1	935.5 ± 1
328.15 K, x1 = 0.0499	805.9 ± 1	809.7 ± 1	813.3 ± 1	816.8 ± 1.1	820.2 ± 1.1
328.15 K, x1 = 0.1061	819.7 ± 1	823.5 ± 1	827.1 ± 1	830.6 ± 1.1	833.9 ± 1.1
328.15 K, x1 = 0.2029	838.9 ± 1	842.6 ± 1	846.3 ± 1	849.6 ± 1	853.1 ± 1
328.15 K, x1 = 0.3028	854.9 ± 1	858.6 ± 1	862.1 ± 1	865.6 ± 1	868.9 ± 1
328.15 K, x1 = 0.3955	866.9 ± 1	870.5 ± 1	874 ± 1	877.4 ± 1	880.9 ± 1
328.15 K, x1 = 0.4938	877.2 ± 1	880.9 ± 1	884.4 ± 1	887.9 ± 1	891.2 ± 1
328.15 K, x1 = 0.5904	885.9 ± 1	889.6 ± 1	893.1 ± 1	896.5 ± 1	899.9 ± 1
328.15 K, x1 = 0.7	894 ± 1	897.7 ± 1	901.2 ± 1	904.6 ± 1	908 ± 1
328.15 K, x1 = 0.7915	899.9 ± 1	903.7 ± 1	907.2 ± 1	910.5 ± 1	913.9 ± 1
328.15 K, x1 = 0.8954	905.5 ± 1	909.3 ± 1	912.7 ± 1	916.2 ± 1	919.5 ± 1
328.15 K, x1 = 0.9332	907.3 ± 1	911 ± 1	914.5 ± 1	917.9 ± 1	921.3 ± 1
328.15 K, x1 = 1	910.6 ± 1	914.3 ± 1	917.9 ± 1	921.3 ± 1	924.7 ± 1
